Results taken from US20230192705A1, “SHP2 INHIBITORS, COMPOSITIONS AND USES THEREOF” (Betta Pharmaceuticals Co., Ltd, priority 2020, published 2023).
Where two headings read alike, the source gives them in different places.

Columns and labels:
[1] = In vitro metabolic stability in human liver microsome; type: in vitro ADME; settings: human liver microsomes
Protocol: 1900 mg MgCl2 was dissolved into a final volume of 400 mL ultra-pure water.
17.42 g K2HPO4 and 13.65 g KH2PO4 were dissolved into a final volume of 1000 mL ultra-pure water, respectively. K2HPO4 and KH2PO4 were mixed to prepare 100 mM potassium phosphate (PBS) buffer. The pH value of the final solution was adjusted to pH 7.30±0.10.
Cold ACN (including 10 ng/mL Labetalol and 10 ng/mL Glibenclamid) was stored at 4° C.
Working Solution Preparation:
Verapamil (positive control) and test compound stock solution were diluted into a concentration of 50 μM and 200 μM respectively, using MeOH/ACN/H2O solution (1:1:2, v/v/v).
1) 40 μL MgCl2 and 306 μL PBS were added to 96 plate wells (blank, compound wells, compounds without NADPH wells)
2) 4 μL compound working solution was added to above wells (blank: 4 μL PBS buffer) (Note: the volume of DMSO in final incubation system ≤0.5%)
3) 10 μL microsomes (20 mg/mL) was added in each well. The mixture was warmed up for 10 minutes at 37.0° C.
4) 40 μL 10 mM NADPH working solution was added to start reaction. The total volume was 400 μL.
5) Aliquots of 50 μL samples were taken from the reaction solution at 0, 5, 15, 45 min. The reaction solutions were stopped by the addition of 400 μL stop solution.
6) The sampling plates were shaked for approx. 5 min.
7) Samples were centrifuged at 3200 rcf for 10 min. then transferred 50 μL to a new plate dilute with 200 μL H2O for LC/MS/MS analysis.
Use equation of first order kinetics to calculate t1/2 and CL: […]
Where k represents elimination constant, which is calculated from a log linear plot of % Remaining versus time. t1/2 represents the half-life. Cprotein is the concentration of liver microsomes.

[2] = system: lung cancer NCI-H358 cell; assay: Cell proliferation assay (CellTiter-Glo), NCI-H358; type: cell-based; settings: Homo sapiens, NCI-H358, 96 hrs, CTG, read-out: Compound on NCI-H358 cell IC50
Method in brief: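 NCI-H358 cells were seeded at 2000 per well on ultra-low-attachment plates and exposed to compound (1000 nM down to 0.1524 nM, threefold steps) for 96 hrs at 37 °C. Viable cells were measured as ATP by CellTiter-Glo luminescence. Inhibition was computed against 0 nM and medium blanks, and IC50 from variable-slope fits.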

Structure (SMILES) | CLint Human [1] | IC50 ([2]; class symbols) | IC50 ([2]; numeric values)
N[C@@H]1c2ccccc2CC12CCN(c1nc3[nH]nc(C4(c5ccc(C(F)(F)F)cc5)CC4)c3c(=O)[nH]1)CC2 [Example 228, (S)-6-(1-amino-1,3-dihydrospiro[indene-2,4′-piperidin]-1′-yl)-3-(1-(4-(trifluoromethyl)phenyl)cyclo-propyl)-1,5-dihydro-4H-pyrazolo[3,4-d]pyrimidin-4-one] | 6.2 μL/min/mg proteins | 20 to 60 nM | –
N#Cc1ccc(C2(c3n[nH]c4nc(N5CCC6(CC5)Cc5ccccc5[C@H]6N)[nH]c(=O)c34)CC2)cc1 [Example 237, (S)-4-(1-(6-(1-amino-1,3-dihydrospiro[indene-2,4′-piperidin]-1′-yl)-4-oxo-4,5-dihydro-1H-pyrazolo[3,4-d]pyrimidin-3-yl)cyclopropyl)benzonitrile] | – | ≤ 20 nM | –
N[C@@H]1c2ccccc2CC12CCN(c1nc3[nH]nc(C4(c5csnn5)CC4)c3c(=O)[nH]1)CC2 [Example 240, (S)-3-(1-(1,2,3-thiadiazol-4-yl)cyclopropyl)-6-(1-amino-1,3-dihydrospiro[indene-2,4′-piperidin]-1′-yl)-1,5-dihydro-4H-pyrazolo[3,4-d]pyrimidin-4-one] | 11.8 μL/min/mg proteins | ≤ 20 nM | –
N[C@@H]1c2ccccc2CC12CCN(c1nc3[nH]nc(C4(c5cccc(C(F)(F)F)c5)CC4)c3c(=O)[nH]1)CC2 [Example 8, (S)-6-(1-amino-1,3-dihydrospiro[indene-2,4′-piperidin]-1′-yl)-3-(1-(3-(trifluoromethyl)plienyl)cyclo-propyl)-1,5-dihydro-4H-pyrazolo[3,4-d]pyrimidin-4-one] | 9.2 μL/min/mg proteins | – | 1.7 nM
N[C@@H]1c2ccccc2CC12CCN(c1nc3[nH]nc(C4(c5ccc(Cl)c(Cl)c5)CC4)c3c(=O)[nH]1)CC2 [Example 21, (S)-6-(1-amino-1,3-dihydrospiro[indene-2,4′-piperidin]-1′-yl)-3-(1-(3,4-dichlorophenyl)cyclopropyl)-1,5-dihydro-4H-pyrazolo[3,4-d]pyrimidin-4-one] | 10.4 μL/min/mg proteins | ≤ 20 nM | –
N[C@@H]1c2ccccc2CC12CCN(c1nc3[nH]nc(C4(c5ccc6c(c5)OC(F)(F)O6)CC4)c3c(=O)[nH]1)CC2 [Example 13, (S)-6-(1-amino-1,3-dihydrospiro[indene-2,4′-piperidin]-1′-yl)-3-(1-(2,2-difluorobenzo[d][1,3]dioxol-5-yl)cyclopropyl)-1,5-dihydro-4H-pyrazolo[3,4-d]pyrimidin-4-one] | 9.8 μL/min/mg proteins | ≤ 20 nM | –
N[C@@H]1c2ccccc2CC12CCN(c1nc3[nH]nc(C4(c5ccc6c(c5)OCO6)CC4)c3c(=O)[nH]1)CC2 [Example 34, (S)-6-(1-amino-1,3-dihydrospiro[indene-2,4′-piperidin]-1′-yl)-3-(1-(benzo[d][1,3]dioxol-5-yl)cyclopropyl)-1,5-dihydro-4H-pyrazolo[3,4-d]pyrimidin-4-one] | 16.5 μL/min/mg proteins | ≤ 20 nM | –
N[C@@H]1c2ccccc2CC12CCN(c1nc3[nH]nc(C4(c5cccs5)CC4)c3c(=O)[nH]1)CC2 [Example 24, (S)-6-(1-amino-1,3-dihydrospiro[indene-2,4′-piperidin]-1′-yl)-3-(1-(thiophen-2-yl)cyclopropyl)-1,5-dihydro-4H-pyrazolo[3,4-d]pyrimidin-4-one] | – | ≤ 20 nM | –

Continued, values first:

CLint Human [1] | IC50 ([2]; class symbols) | IC50 ([2]; numeric values) | Structure (SMILES)
16.9 μL/min/mg proteins | ≤ 20 nM | – | N[C@@H]1c2ccccc2CC12CCN(c1nc3[nH]nc(C4(c5ccccc5)CC4(F)F)c3c(=O)[nH]1)CC2 (stereo partly drawn) [Example 9, 6-((S)-1-amino-1,3-dihydrospiro[indene-2,4′-piperidin]-1′-yl)-3-(2,2-difluoro-1-phenylcyclopropyl)-1,5-dihydro-4H-pyrazolo[3,4-d]pyrimidin-4-one]
– | > 60 nM | – | N[C@@H]1c2ccccc2CC12CCN(c1nc3[nH]nc(C4(c5ccccc5)COC4)c3c(=O)[nH]1)CC2 [Example 96, (S)-6-(1-amino-1,3-dihydrospiro[indene-2,4′-piperidin]-1′-yl)-3-(3-phenyloxetan-3-yl)-1,5-dihydro-4H-pyrazolo[3,4-d]pyrimidin-4-one]
95.2 μL/min/mg proteins | – | – | Cn1c(N2CCC3(CC2)Cc2ccccc2[C@H]3N)nc2[nH]nc(C3(c4ccccc4)CC3)c2c1=O [Example 1]
9.2 μL/min/mg proteins | – | – | Nc1ccc(C2(c3n[nH]c4nc(N5CCC6(CC5)Cc5ccccc5[C@H]6N)[nH]c(=O)c34)CC2)cc1 [Example 230, (S)-6-(1-amino-1,3-dihydrospiro[indene-2,4′-piperidin]-1′-yl)-3-(1-(4-aminophenyl)cyclopropyl)-1,5-dihydro-4H-pyrazolo[3,4-d]pyrimidin-4-one]
10.6 μL/min/mg proteins | ≤ 20 nM | – | N[C@@H]1c2ccccc2CC12CCN(c1nc3[nH]nc(C4(c5ccccc5)CC4)c3c(=O)[nH]1)CC2 [Example 33]
8.6 μL/min/mg proteins | – | 2.1 nM | N[C@@H]1c2ccccc2CC12CCN(c1nc3[nH]nc(C4(c5ccc(F)cc5)CC4)c3c(=O)[nH]1)CC2 [Example 11, (S)-6-(1-amino-1,3-dihydrospiro[indene-2,4′-piperidin]-1′-yl)-3-(1-(4-fluorophenyl)cyclopropyl)-1,5-dihydro-4H-pyrazolo[3,4-d]pyrimidin-4-one]
19.5 μL/min/mg proteins | – | 8.6 nM | N[C@@H]1c2ccccc2CC12CCN(c1nc3[nH]nc(C4(c5cccc(F)c5)CC4)c3c(=O)[nH]1)CC2 [Example 6, (S)-6-(1-amino-1,3-dihydrospiro[indene-2,4′-piperidin]-1′-yl)-3-(1-(3-fluorophenyl)cyclopropyl)-1,5-dihydro-4H-pyrazolo[3,4-d]pyrimidin-4-one]
10.4 μL/min/mg proteins | – | – | N[C@@H]1c2ccccc2CC12CCN(c1nc3[nH]nc(C4(c5ccc(O)cc5)CC4)c3c(=O)[nH]1)CC2 [Example 234, (S)-6-(1-amino-1,3-dihydrospiro[indene-2,4′-piperidin]-1′-yl)-3-(1-(4-hydroxyphenyl)cyclopropyl)-1,5-dihydro-4H-pyrazolo[3,4-d]pyrimidin-4-one]
